Test system: MV-4-11 cells
Test: Gene expression microarray analysis (Affymetrix PrimeView) and GSEA
Type: cell-based, human
Set-up: RFU PODN (11730768_x_at) / Fold change /veh PODN (11730768_x_at) / RFU LINC00158 (11744669_a_at) / Fold change /veh LINC00158 (11744669_a_at) / RFU DUSP10 (11751237_a_at) / Fold change /veh DUSP10 (11751237_a_at) / RFU ID3 (11757404_x_at) / Fold change /veh ID3 (11757404_x_at) / RFU PLEKHG5 (11737974_s_at) / Fold change /veh PLEKHG5 (11737974_s_at) / RFU LRRC4B (11730491_at) / Fold change /veh LRRC4B (11730491_at) / RFU GIMAP4 (11747438_a_at) / Fold change /veh GIMAP4 (11747438_a_at) / RFU KRT8 (11758183_x_at) / Fold change /veh KRT8 (11758183_x_at) / RFU CNN1 (11734310_a_at) / Fold change /veh CNN1 (11734310_a_at) / RFU VPS37D (11726825_at) / Fold change /veh VPS37D (11726825_at) / RFU C10orf10 (11716522_x_at) / Fold change /veh C10orf10 (11716522_x_at) / RFU KIR2DL2 /// KIR2DL4 /// KIR2DL5A /// KIR2DL5B /// KIR2DS1 /// KIR2DS2 /// KIR2DS3 /// KIR2DS4 /// KIR3DL3 /// KIR3DL3 /// KIR3DS1 (11738374_at) / Fold change /veh KIR2DL2 /// KIR2DL4 /// KIR2DL5A /// KIR2DL5B /// KIR2DS1 /// KIR2DS2 /// KIR2DS3 /// KIR2DS4 /// KIR3DL3 /// KIR3DL3 /// KIR3DS1 (11738374_at) / RFU C1QL1 (11718748_at) / Fold change /veh C1QL1 (11718748_at) / RFU TMPRSS4 (11747572_a_at) / Fold change /veh TMPRSS4 (11747572_a_at) / RFU HAMP (11756126_x_at) / Fold change /veh HAMP (11756126_x_at) / RFU RNFT2 (11725882_a_at) / Fold change /veh RNFT2 (11725882_a_at) / RFU NR4A2 (11747474_a_at) / Fold change /veh NR4A2 (11747474_a_at) / RFU ABCC12 (11746883_a_at) / Fold change /veh ABCC12 (11746883_a_at) / RFU TMEM136 (11760407_x_at) / Fold change /veh TMEM136 (11760407_x_at) / RFU CLDN22 /// WWC2 (11732394_at) / Fold change /veh CLDN22 /// WWC2 (11732394_at) / RFU HLA-DPB1 (11760878_x_at) / Fold change /veh HLA-DPB1 (11760878_x_at) / RFU SPINT1 (11716480_a_at) / Fold change /veh SPINT1 (11716480_a_at) / RFU GAP43 (11754022_s_at) / Fold change /veh GAP43 (11754022_s_at) / RFU A4GNT (11735810_at) / Fold change /veh A4GNT (11735810_at) / RFU PRB3 (11715151_x_at) / Fold change /veh PRB3 (11715151_x_at) / RFU TUBB4B (11761932_at) / Fold change /veh TUBB4B (11761932_at) / RFU CAPN14 (11732068_a_at) / Fold change /veh CAPN14 (11732068_a_at) / RFU TMCC2 (11721928_a_at) / Fold change /veh TMCC2 (11721928_a_at) / RFU IRGQ (11745062_a_at) / Fold change /veh IRGQ (11745062_a_at) / RFU FAM174B (11720279_a_at) / Fold change /veh FAM174B (11720279_a_at) / RFU TMPRSS4 (11748680_a_at) / Fold change /veh TMPRSS4 (11748680_a_at) / RFU FAM212B (11763350_a_at) / Fold change /veh FAM212B (11763350_a_at) / RFU PLEKHG5 (11743358_a_at) / Fold change /veh PLEKHG5 (11743358_a_at) / RFU ZSCAN30 (11745921_a_at) / Fold change /veh ZSCAN30 (11745921_a_at) / RFU CMKLR1 (11741424_a_at) / Fold change /veh CMKLR1 (11741424_a_at) / RFU LOC101060620 /// MAPK8IP1 (11723275_at) / Fold change /veh LOC101060620 /// MAPK8IP1 (11723275_at) / RFU SPTSSB (11747773_x_at) / Fold change /veh SPTSSB (11747773_x_at) / RFU PRSS12 (11739890_at) / Fold change /veh PRSS12 (11739890_at) / RFU BIN1 (11741810_x_at) / Fold change /veh BIN1 (11741810_x_at) / RFU WNT11 (11732464_a_at) / Fold change /veh WNT11 (11732464_a_at) / RFU C10orf10 (11716521_a_at) / Fold change /veh C10orf10 (11716521_a_at) / RFU C5orf56 (11738089_at) / Fold change /veh C5orf56 (11738089_at) / RFU CYB561 (11721691_x_at) / Fold change /veh CYB561 (11721691_x_at) / RFU ANKRD19P (11752326_a_at) / Fold change /veh ANKRD19P (11752326_a_at) / RFU OR2T12 /// OR2T33 /// OR2T8 (11738714_s_at) / Fold change /veh OR2T12 /// OR2T33 /// OR2T8 (11738714_s_at) / RFU VCAN (11748164_a_at) / Fold change /veh VCAN (11748164_a_at) / RFU JSRP1 (11732532_at) / Fold change /veh JSRP1 (11732532_at) / RFU KRTAP10-11 (11738290_x_at) / Fold change /veh KRTAP10-11 (11738290_x_at) / RFU MYO3A (11730013_a_at) / Fold change /veh MYO3A (11730013_a_at) / RFU EBF3 (11725865_a_at) / Fold change /veh EBF3 (11725865_a_at) / RFU CAMK2N1 (11719241_x_at) / Fold change /veh CAMK2N1 (11719241_x_at) / RFU C5orf56 (11738088_a_at) / Fold change /veh C5orf56 (11738088_a_at) / RFU OLFML3 (11715873_a_at) / Fold change /veh OLFML3 (11715873_a_at) / RFU LOC100653217 /// NTM (11731650_a_at) / Fold change /veh LOC100653217 /// NTM (11731650_a_at) / RFU MAPK11 (11762145_a_at) / Fold change /veh MAPK11 (11762145_a_at) / RFU FIZ1 (11724087_x_at) / Fold change /veh FIZ1 (11724087_x_at) / RFU OASL (11726364_x_at) / Fold change /veh OASL (11726364_x_at) / RFU SOX15 (11748057_x_at) / Fold change /veh SOX15 (11748057_x_at) / RFU CD79A (11719716_a_at) / Fold change /veh CD79A (11719716_a_at) / RFU HIST1H1D (11736915_at) / Fold change /veh HIST1H1D (11736915_at) / RFU CASKIN2 (11723855_a_at) / Fold change /veh CASKIN2 (11723855_a_at) / RFU LOC730098 (11760151_x_at) / Fold change /veh LOC730098 (11760151_x_at) / RFU OR4N2 (11742367_at) / Fold change /veh OR4N2 (11742367_at) / RFU PRRT2 (11749266_a_at) / Fold change /veh PRRT2 (11749266_a_at) / RFU SNX32 (11753110_a_at) / Fold change /veh SNX32 (11753110_a_at) / RFU CDHR5 (11726645_a_at) / Fold change /veh CDHR5 (11726645_a_at) / RFU RCAN1 (11760418_a_at) / Fold change /veh RCAN1 (11760418_a_at) / RFU FAM167A (11723789_a_at) / Fold change /veh FAM167A (11723789_a_at) / RFU FAM26E (11764081_at) / Fold change /veh FAM26E (11764081_at) / RFU ISYNA1 (11749810_s_at) / Fold change /veh ISYNA1 (11749810_s_at) / RFU ACY1 (11761880_at) / Fold change /veh ACY1 (11761880_at) / RFU 11764098_at / Fold change /veh 11764098_at / RFU SAMD14 (11745864_x_at) / Fold change /veh SAMD14 (11745864_x_at) / RFU NPB (11741838_a_at) / Fold change /veh NPB (11741838_a_at) / RFU TMPRSS6 (11731388_a_at) / Fold change /veh TMPRSS6 (11731388_a_at) / RFU KRTAP10-2 (11738614_at) / Fold change /veh KRTAP10-2 (11738614_at) / RFU ARHGAP8 /// PRR5-ARHGAP8 (11727945_x_at) / Fold change /veh ARHGAP8 /// PRR5-ARHGAP8 (11727945_x_at) / RFU KRTAP5-7 /// NADSYN1 (11734609_at) / Fold change /veh KRTAP5-7 /// NADSYN1 (11734609_at) / RFU RASL12 (11751679_a_at) / Fold change /veh RASL12 (11751679_a_at) / RFU CDKN2B (11736163_a_at) / Fold change /veh CDKN2B (11736163_a_at) / RFU PRF1 (11729649_at) / Fold change /veh PRF1 (11729649_at) / RFU, ZNF638 /// ZNF638-IT1 / Fold change vs veh, ZNF638 /// ZNF638-IT1 / RFU, PANK3 / Fold change vs veh, PANK3 / RFU, SH3YL1 / Fold change vs veh, SH3YL1 / RFU, ZEB2 / Fold change vs veh, ZEB2 / RFU, NRIP1 / Fold change vs veh, NRIP1 / RFU, PTTG1IP / Fold change vs veh, PTTG1IP / RFU, CAPN2 / Fold change vs veh, CAPN2 / RFU, MED14 / Fold change vs veh, MED14 / RFU, SNORA58 / Fold change vs veh, SNORA58 / RFU, C1orf63 / Fold change vs veh, C1orf63 / RFU, LRRFIP1 / Fold change vs veh, LRRFIP1 / RFU, NDUFAF7 / Fold change vs veh, NDUFAF7 / RFU, SLC12A2 / Fold change vs veh, SLC12A2 / RFU, IBTK / Fold change vs veh, IBTK / RFU, ESF1 / Fold change vs veh, ESF1 / Fold change vs veh, TMEM50B / RFU, TAOK1 / Fold change vs veh, TAOK1 / RFU, ACBD3 / Fold change vs veh, ACBD3 / RFU, TMA16 / Fold change vs veh, TMA16 / RFU, RWDD3 / Fold change vs veh, RWDD3 / RFU, BCAT1 / Fold change vs veh, BCAT1 / RFU, EDEM3 / Fold change vs veh, EDEM3 / RFU, TMEM33 / Fold change vs veh, TMEM33 / RFU, WDR75 / Fold change vs veh, WDR75 / RFU, AHCTF1 / Fold change vs veh, AHCTF1 / RFU, TFRC / Fold change vs veh, TFRC / RFU, ZDHHC17 / Fold change vs veh, ZDHHC17 / RFU, NOM1 / Fold change vs veh, NOM1 / RFU, ARL8B / Fold change vs veh, ARL8B / RFU, ZBTB11 / Fold change vs veh, ZBTB11 / RFU, TAMM41 / Fold change vs veh, TAMM41 / RFU, KIAA1704 /// LOC100996395 / Fold change vs veh, KIAA1704 /// LOC100996395 / RFU, ING1 / Fold change vs veh, ING1 / RFU, TRMT61B / Fold change vs veh, TRMT61B / RFU, FUBP3 / Fold change vs veh, FUBP3 / RFU, TP53 / Fold change vs veh, TP53 / RFU, TNKS2 / Fold change vs veh, TNKS2 / RFU, ZFP14 / Fold change vs veh, ZFP14 / RFU, ACTR2 / Fold change vs veh, ACTR2 / RFU, PPP3R1 / Fold change vs veh, PPP3R1 / RFU, PIK3R1 / Fold change vs veh, PIK3R1 / RFU, HNRNPA1 / Fold change vs veh, HNRNPA1 / RFU, RNF170 / Fold change vs veh, RNF170 / RFU, ZNF28 / Fold change vs veh, ZNF28 / RFU, RNGTT / Fold change vs veh, RNGTT / RFU, OGT / Fold change vs veh, OGT / RFU, BRD1 / Fold change vs veh, BRD1 / RFU, MARS / Fold change vs veh, MARS / RFU, ZNF655 / Fold change vs veh, ZNF655 / RFU, FAHD1 / Fold change vs veh, FAHD1 / RFU, BDP1 / Fold change vs veh, BDP1 / RFU, LRRCC1 / Fold change vs veh, LRRCC1 / RFU, ARID1A / Fold change vs veh, ARID1A / RFU, ZNF146 / Fold change vs veh, ZNF146 / RFU, ZNF330 / Fold change vs veh, ZNF330 / RFU, GPN3 / Fold change vs veh, GPN3 / RFU, C9orf123 / Fold change vs veh, C9orf123 / RFU, N4BP2L2 / Fold change vs veh, N4BP2L2 / RFU, ARFIP1 / Fold change vs veh, ARFIP1 / RFU, FAM179B / Fold change vs veh, FAM179B / RFU, BCL10 / Fold change vs veh, BCL10 / RFU, UHRF1BP1L / Fold change vs veh, UHRF1BP1L / RFU, BET1 / Fold change vs veh, BET1 / RFU, CNOT2 / Fold change vs veh, CNOT2 / RFU, ZNF268 / Fold change vs veh, ZNF268 / Fold change vs veh, ZNF507 / RFU, DGCR2 / Fold change vs veh, DGCR2 / RFU, WDSUB1 / Fold change vs veh, WDSUB1 / Fold change vs veh, HSP90B1 /// MIR3652 / RFU, ADSS / Fold change vs veh, ADSS / RFU, GK / Fold change vs veh, GK / RFU, ZNF148 / Fold change vs veh, ZNF148 / RFU, TAF9 / Fold change vs veh, TAF9 / RFU, SLC1A5 / Fold change vs veh, SLC1A5 / RFU, SLMO2 / Fold change vs veh, SLMO2 / RFU, ABCC4 / Fold change vs veh, ABCC4 / RFU, LOC101060439 /// RAP1B / Fold change vs veh, LOC101060439 /// RAP1B / RFU, RFX7 / Fold change vs veh, RFX7 / RFU, GTPBP10 / Fold change vs veh, GTPBP10 / RFU, CNEP1R1 / Fold change vs veh, CNEP1R1 / RFU, BIVM-ERCC5 /// ERCC5 / Fold change vs veh, BIVM-ERCC5 /// ERCC5 / RFU, ILF3 / Fold change vs veh, ILF3 / RFU 11762660_at / Fold change /veh 11762660_at / RFU VCAN (11757783_s_at) / Fold change /veh VCAN (11757783_s_at) / RFU DDX43 (11728927_at) / Fold change /veh DDX43 (11728927_at) / RFU KRT8 (11758188_x_at) / Fold change /veh KRT8 (11758188_x_at) / RFU NKD1 (11759106_at) / Fold change /veh NKD1 (11759106_at) / RFU SRD5A1 (11742802_a_at) / Fold change /veh SRD5A1 (11742802_a_at) / RFU TPSAB1 /// TPSB2 (11721975_s_at) / Fold change /veh TPSAB1 /// TPSB2 (11721975_s_at) / RFU GSTM3 (11746129_a_at) / Fold change /veh GSTM3 (11746129_a_at) / RFU IL23R (11737362_x_at) / Fold change /veh IL23R (11737362_x_at) / RFU TMEM51 (11727254_a_at) / Fold change /veh TMEM51 (11727254_a_at) / RFU PIWIL2 (11732686_x_at) / Fold change /veh PIWIL2 (11732686_x_at) / RFU ORM1 (11744905_x_at) / Fold change /veh ORM1 (11744905_x_at) / RFU CCDC152 (11743942_at) / Fold change /veh CCDC152 (11743942_at) / RFU ECM1 (11717891_a_at) / Fold change /veh ECM1 (11717891_a_at) / RFU IL23R (11748794_a_at) / Fold change /veh IL23R (11748794_a_at) / RFU TNFAIP8L3 (11732012_x_at) / Fold change /veh TNFAIP8L3 (11732012_x_at) / RFU MBOAT4 (11741988_at) / Fold change /veh MBOAT4 (11741988_at) / RFU 11764193_at / Fold change /veh 11764193_at / RFU TMEM53 (11763286_at) / Fold change /veh TMEM53 (11763286_at) / RFU MAGEB2 (11727129_at) / Fold change /veh MAGEB2 (11727129_at) / RFU TMEM200A (11744735_a_at) / Fold change /veh TMEM200A (11744735_a_at) / RFU CCDC152 (11751479_a_at) / Fold change /veh CCDC152 (11751479_a_at) / RFU FAM211A (11726209_a_at) / Fold change /veh FAM211A (11726209_a_at) / RFU RGS16 (11746705_a_at) / Fold change /veh RGS16 (11746705_a_at) / RFU VCAN (11755009_s_at) / Fold change /veh VCAN (11755009_s_at) / RFU RHOB (11743442_s_at) / Fold change /veh RHOB (11743442_s_at) / RFU RGS16 (11720943_a_at) / Fold change /veh RGS16 (11720943_a_at) / RFU RGS16 (11720944_at) / Fold change /veh RGS16 (11720944_at) / RFU, VPS4B / Fold change vs veh, VPS4B / RFU, CREB1 / Fold change vs veh, CREB1 / RFU, DNAJC13 / Fold change vs veh, DNAJC13 / RFU, GNAQ / Fold change vs veh, GNAQ / RFU, CDK5R1 / Fold change vs veh, CDK5R1 / RFU, ZRANB3 / Fold change vs veh, ZRANB3 / RFU, CUL4A / Fold change vs veh, CUL4A / RFU, CCNY / Fold change vs veh, CCNY / RFU, UFL1 / Fold change vs veh, UFL1 / RFU, COG3 / Fold change vs veh, COG3 / RFU, DIAPH2 / Fold change vs veh, DIAPH2 / RFU, SKA2 / Fold change vs veh, SKA2 / RFU, AFF3 / Fold change vs veh, AFF3 / RFU, LMF1 / Fold change vs veh, LMF1 / RFU, IPO11 / Fold change vs veh, IPO11 / RFU, DFFB / Fold change vs veh, DFFB / RFU, FOXP1 / Fold change vs veh, FOXP1 / RFU, CARD8 / Fold change vs veh, CARD8 / RFU, STRN3 / Fold change vs veh, STRN3 / RFU, ADK / Fold change vs veh, ADK / RFU, RASSF2 / Fold change vs veh, RASSF2 / RFU, WIPF1 / Fold change vs veh, WIPF1 / RFU, LARP1B / Fold change vs veh, LARP1B / RFU, RASA1 / Fold change vs veh, RASA1 / RFU, RB1 / Fold change vs veh, RB1 / RFU, PPFIA1 / Fold change vs veh, PPFIA1 / RFU, MAT2A / Fold change vs veh, MAT2A / RFU, CCT5 / Fold change vs veh, CCT5 / RFU, WDR92 / Fold change vs veh, WDR92 / RFU, CUX1 / Fold change vs veh, CUX1 / RFU, TTC7A / Fold change vs veh, TTC7A / RFU, TMEM135 / Fold change vs veh, TMEM135 / RFU, DEPTOR / Fold change vs veh, DEPTOR / RFU, CPM / Fold change vs veh, CPM / RFU, DNAJB6 / Fold change vs veh, DNAJB6 / RFU, CACNA2D3 / Fold change vs veh, CACNA2D3 / RFU, DTX4 / Fold change vs veh, DTX4 / RFU, TFCP2 / Fold change vs veh, TFCP2 / RFU, GMCL1 /// GMCL1P1 / Fold change vs veh, GMCL1 /// GMCL1P1 / RFU, AEBP2 / Fold change vs veh, AEBP2 / RFU, SNHG1 /// SNORD22 /// SNORD25 /// SNORD26 /// SNORD27 /// SNORD28 /// SNORD29 /// SNORD31 / Fold change vs veh, SNHG1 /// SNORD22 /// SNORD25 /// SNORD26 /// SNORD27 /// SNORD28 /// SNORD29 /// SNORD31 / Fold change (Aza/veh), C12orf56 (ProbeSet 11735607_a_at) / Fold change (ACY-1035/veh), C12orf56 (ProbeSet 11735607_a_at) / Fold change (Aza/veh), FGFR1OP (ProbeSet 11751329_s_at) / Fold change (ACY-1035/veh), FGFR1OP (ProbeSet 11751329_s_at) / Fold change (Aza/veh), VPS36 (ProbeSet 11739960_a_at) / Fold change (ACY-1035/veh), VPS36 (ProbeSet 11739960_a_at) / RFU SYPL1 (11715823_x_at) / Fold change /veh SYPL1 (11715823_x_at) / RFU IGFBP7 (11715501_s_at) / Fold change /veh IGFBP7 (11715501_s_at) / RFU REEP3 (11722064_at) / Fold change /veh REEP3 (11722064_at) / RFU IGLL1 (11728026_x_at) / Fold change /veh IGLL1 (11728026_x_at): dose or concentration left out as unconfirmed
Conditions: MV-4-11 cells, 48 hours

Nc1ccc(-c2cccs2)cc1NC(=O)c1ccc2c(c1)cc(C1CC1)n2CCN1CCOCC1 [ACY-1035]
Fold change /veh PRB3 (11715151_x_at): 0.95
